Laboratory results reported in patent US20180311611A1, “ABSORBENT FOR THE SELECTIVE REMOVAL OF HYDROGEN SULFIDE” (BASF SE, priority 2015, published 2018).
Read-outs that look alike come from different tables or passages of the source.

How the values were obtained:
[1] = physchem
From the text: (§1) The pKA values are suitably determined in aqueous solution with an amine concentration of 0.01 mol/kg at the given temperature by determining the pH at the point of half-equivalence of the dissociation stage under consideration by means of addition of hydrochloric acid (1st dissociation stage 0.005 mol/kg; 2nd dissociation stage: 0.015 mol/kg; 3rd dissociation stage: 0.025 mol/kg). Measurement is accomplished using a thermostated closed jacketed vessel in which the liquid was blanketed with nitrogen. The Hamilton Polylite Plus 120 pH electrode was used, which was calibrated with pH 7 and pH 12 buffer solutions.

[2] = pKA determination of amines by pH at half-equivalence with hydrochloric acid; details: for pKA (120° C.) / pKA (50° C.): aqueous solution, amine 0.01 mol/kg; for ΔpKA (120 − 50° C.): difference between 120° C. and 50° C.
From the text: as §1

| pKa ([1]; aqueous solution of the amine) | pKA (120° C.) ([2]; dissociation stage pKA1) | ΔpKA (120 − 50° C.) ([2]; dissociation stage pKA1) | pKA (50° C.) ([2]; dissociation stage pKA2) | pKA (120° C.) ([2]; dissociation stage pKA2) | ΔpKA (120 − 50° C.) ([2]; dissociation stage pKA2) | pKA (50° C.) ([2]; dissociation stage pKA3) | pKA (120° C.) ([2]; dissociation stage pKA3) | ΔpKA (120 − 50° C.) ([2]; dissociation stage pKA3) | pKA (50° C.) ([2]; dissociation stage pKA1) | Structure (SMILES) | pKa [1] |
| --- | --- | --- | --- | --- | --- | --- | --- | --- | --- | --- | --- |
| 9.8 | 8.17 | 1.63 | 8.01 | 6.67 | 1.34 |  |  |  |  | CN(C)C1CCC(N(C)C)CC1 (stereo not shown) [1,4-Bis(dimethylamino)cyclohexane] |  |
|  |  |  |  |  |  |  |  |  |  | CN(C)C1CCCCC1 [Cyclohexyl-N,N-dimethylamine] | 10 |
| 10.1 | 8.63 | 1.51 | 10.13 | 8.62 | 1.51 | 10.12 | 8.69 | 1.43 |  | CN(C)CCCN(CCO)CCCN(C)C [Hydroxyethylbis(dimethylaminopropyl)amine] |  |
| 11.2 | 9.78 | 1.59 |  | 9.35 | 1.88 | 10.45 | 7.97 | 2.48 | 11.37 | CN(C)CCCN1CN(CCCN(C)C)CN(CCCN(C)C)C1 [N,N,N′,N′,N″,N″-Hexamethyl-1,3,5-triazine-1,3,5(2H,4H,6H)-tripropanamine] |  |
